Results as given in the NIST ThermoML archive (doi:10.1016/j.fluid.2009.11.017).
Numbers after ± are expanded uncertainties.

Details: Liquid, Ebulliometric method (Recirculating still)

| vapor or sublimation pressure (344.79 K) [kPa] | vapor or sublimation pressure (357.27 K) [kPa] | vapor or sublimation pressure (365.3 K) [kPa] | vapor or sublimation pressure (372.09 K) [kPa] | vapor or sublimation pressure (377.89 K) [kPa] | vapor or sublimation pressure (382.18 K) [kPa] | vapor or sublimation pressure (386.25 K) [kPa] | vapor or sublimation pressure (390.38 K) [kPa] | vapor or sublimation pressure (394.05 K) [kPa] | Structure (SMILES) | vapor or sublimation pressure (365.49 K) [kPa] | vapor or sublimation pressure (376.75 K) [kPa] | vapor or sublimation pressure (385.55 K) [kPa] | vapor or sublimation pressure (392.87 K) [kPa] | vapor or sublimation pressure (398.66 K) [kPa] | vapor or sublimation pressure (404.09 K) [kPa] | vapor or sublimation pressure (408.83 K) [kPa] | vapor or sublimation pressure (413.06 K) [kPa] | vapor or sublimation pressure (417.28 K) [kPa] |
| --- | --- | --- | --- | --- | --- | --- | --- | --- | --- | --- | --- | --- | --- | --- | --- | --- | --- | --- |
|  |  |  |  |  |  |  |  |  | Cc1ccccc1C [1,2-dimethylbenzene] | 20.4 ± 0.35 | 30.14 ± 0.35 | 40.2 ± 0.36 | 50.43 ± 0.37 | 60.03 ± 0.38 | 70.27 ± 0.4 | 80.41 ± 0.41 | 90.54 ± 0.43 | 101.85 ± 0.44 |
| 20.39 ± 0.35 | 32.09 ± 0.36 | 42.29 ± 0.37 | 52.61 ± 0.38 | 63.09 ± 0.39 | 71.89 ± 0.41 | 81.18 ± 0.42 | 91.67 ± 0.44 | 102.02 ± 0.45 | C1CCSC1 [tetrahydrothiophene] |  |  |  |  |  |  |  |  |  |
